Assay results as given in PubChem BioAssay AID248 (DTP/NCI, 2004).
Several values for one entry are separate records, joined by “and”; a condition that tells them apart may be missing. Equal values may be shown once. Toxic doses and inconclusive results are not listed. Rule as the data show it: active = T/C of 150% or more; inactive = T/C below 125%.

Tested on: L1210 leukemia ip in BDF1 mice, survival T/C
Test: NCI In Vivo Anticancer Drug Screen. Data for tumor model L1210 Leukemia (intraperitoneal) in B6D2F1 (BDF1) mice
Settings: endpoint: mean survival time, higher = longer survival
Method in brief: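 Transplantable tumor model; survival measured in treated vs vehicle control mice. Value = treated/control.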

[1] = dose: 100.0 mg/kg/injection, schedule: Q04DX002 (ip), vehicle: Klucel (hydroxypropylcellulose) (HPC)
[2] = dose: 100.0 mg/kg/injection, schedule: Q04DX003 (ip), vehicle: saline
[3] = dose: 200.0 mg/kg/injection, schedule: Q04DX003 (ip), vehicle: saline
[4] = dose: 400.0 mg/kg/injection, schedule: Q04DX003 (ip), vehicle: saline
[5] = dose: 100.0 mg/kg/injection, schedule: Q01DX001 (ip), vehicle: saline with Tween-80
[6] = dose: 100.0 mg/kg/injection, schedule: Q01DX001 (ip), vehicle: carboxymethylcellulose (CMC)
[7] = dose: 100.0 mg/kg/injection, schedule: Q01DX009 (ip), vehicle: Klucel (hydroxypropylcellulose) (HPC)
[8] = dose: 100.0 mg/kg/injection, schedule: Q04DX003 (ip), vehicle: Klucel (hydroxypropylcellulose) (HPC)
[9] = dose: 200.0 mg/kg/injection, schedule: Q01DX001 (ip), vehicle: carboxymethylcellulose (CMC)
[10] = dose: 200.0 mg/kg/injection, schedule: Q01DX009 (ip), vehicle: Klucel (hydroxypropylcellulose) (HPC)
[11] = dose: 200.0 mg/kg/injection, schedule: Q04DX003 (ip), vehicle: Klucel (hydroxypropylcellulose) (HPC)
[12] = dose: 400.0 mg/kg/injection, schedule: Q01DX001 (ip), vehicle: carboxymethylcellulose (CMC)
[13] = dose: 400.0 mg/kg/injection, schedule: Q01DX009 (ip), vehicle: Klucel (hydroxypropylcellulose) (HPC)
[14] = dose: 400.0 mg/kg/injection, schedule: Q04DX003 (ip), vehicle: Klucel (hydroxypropylcellulose) (HPC)
[15] = dose: 100.0 mg/kg/injection, schedule: Q01DX001 (ip), vehicle: saline
[16] = dose: 200.0 mg/kg/injection, schedule: Q01DX001 (ip), vehicle: saline
[17] = dose: 400.0 mg/kg/injection, schedule: Q01DX001 (ip), vehicle: saline
[18] = dose: 100.0 mg/kg/injection, schedule: Q01DX009 (ip), vehicle: saline
[19] = dose: 200.0 mg/kg/injection, schedule: Q01DX009 (ip), vehicle: saline
[20] = dose: 400.0 mg/kg/injection, schedule: Q01DX009 (ip), vehicle: saline
[21] = dose: 50.0 mg/kg/injection, schedule: Q01DX001 (ip), vehicle: saline
[22] = dose: 100.0 mg/kg/injection, schedule: Q01DX009 (ip), vehicle: saline with Tween-80
[23] = dose: 200.0 mg/kg/injection, schedule: Q01DX009 (ip), vehicle: saline with Tween-80
[24] = dose: 400.0 mg/kg/injection, schedule: Q01DX009 (ip), vehicle: saline with Tween-80
[25] = dose: 50.0 mg/kg/injection, schedule: Q01DX009 (ip), vehicle: saline

Measured: T/C

CC(Oc1ccccc1)C(=O)Nc1ccc(F)cc1 (stereo unspecified)
inactive: [1] 94 % of control | dose: 200.0 mg/kg/injection, schedule: Q04DX002 (ip), vehicle: Klucel (hydroxypropylcellulose) (HPC) 97 % of control | dose: 400.0 mg/kg/injection, schedule: Q04DX002 (ip), vehicle: Klucel (hydroxypropylcellulose) (HPC) 97 % of control

OC1CCC(O)CC1 (stereo unspecified)
inactive: [2] 100 % of control | [3] 100 % of control | [4] 115 % of control

Cc1ccc(S(=O)(=O)N(CCCc2c(C)nc(N)nc2Nc2ccccc2)c2ccccc2)cc1
inactive: dose: 25.0 mg/kg/injection, schedule: Q01DX001 (ip), vehicle: saline with Tween-80 108 % of control | dose: 50.0 mg/kg/injection, schedule: Q01DX001 (ip), vehicle: saline with Tween-80 92 % of control | [5] 93 % of control

O=C(c1ccccc1)C(Br)C(Br)C(=O)c1ccccc1 (stereo unspecified)
inactive: [6] 107 % of control | [7] 93 % of control | [8] 91 % of control | [9] 96 % of control | [10] 101 % of control | [11] 88 % of control | [12] 107 % of control | [13] 91 % of control | [14] 90 % of control

CCOC(=O)NCCO
inactive: [15] 103 % of control | [16] 95 % of control | [17] 97 % of control

NC(N)=NCCCCCC(=O)O
inactive: [18] 95 % of control | [2] 103 % of control | [19] 88 % of control | [3] 100 % of control | [4] 101 % of control

CCCCCCCCCCNc1ccc(NCCCCCCCCCC)cc1
inactive: [7] 108 % of control | [8] 95 % of control | [10] 109 % of control | [11] 102 % of control | [13] 90 % of control | [14] 105 % of control

CCOC(=O)/C=C/c1c[nH]c(=O)[nH]c1=O
inactive: [18] 109 % of control | [2] 103 % of control | [19] 111 % of control | [3] 97 % of control | [20] 105 % of control | [4] 94 % of control

COc1ccc(NCCC(O)CN2CCOCC2)cc1 (stereo unspecified)
inactive: [21] 100 % of control | [15] 94 % of control | [16] 119 % of control

CC(=O)OCC(COC(C)=O)(OC(COC(C)=O)(COC(C)=O)c1ccc(C)c(C)c1)c1ccc(C)c(C)c1
inactive: [21] 97 % of control | [15] 100 % of control | [16] 97 % of control | [17] 100 % of control

c1ccn(-c2nccs2)c1
inactive: dose: 100.0 mg/kg/injection, schedule: Q04DX003 (ip), vehicle: saline with Tween-80 103 % of control | dose: 200.0 mg/kg/injection, schedule: Q04DX003 (ip), vehicle: saline with Tween-80 113 % of control

N/C(N=P(c1ccccc1)(c1ccccc1)c1ccccc1)=N\S(=O)(=O)c1ccc([N+](=O)[O-])cc1
inactive: dose: 25.0 mg/kg/injection, schedule: Q04DX002 (ip), vehicle: Klucel (hydroxypropylcellulose) (HPC) 104 % of control | dose: 50.0 mg/kg/injection, schedule: Q04DX002 (ip), vehicle: Klucel (hydroxypropylcellulose) (HPC) 111 % of control | [1] 96 % of control

C[n+]1nc2ccccc2c(=Nc2ccccc2[N+](=O)[O-])[n-]1
inactive: dose: 100.0 mg/kg/injection, schedule: Q01DX001 (ip), vehicle: Klucel (hydroxypropylcellulose) (HPC) 93 % of control | dose: 200.0 mg/kg/injection, schedule: Q01DX001 (ip), vehicle: Klucel (hydroxypropylcellulose) (HPC) 94 % of control | dose: 400.0 mg/kg/injection, schedule: Q01DX001 (ip), vehicle: Klucel (hydroxypropylcellulose) (HPC) 94 % of control

CCCCNS(=O)(=O)c1ccc(Cl)c([N+](=O)[O-])c1
inactive: dose: 12.5 mg/kg/injection, schedule: Q04DX003 (ip), vehicle: Klucel (hydroxypropylcellulose) (HPC) 95 % of control | dose: 25.0 mg/kg/injection, schedule: Q04DX003 (ip), vehicle: Klucel (hydroxypropylcellulose) (HPC) 103 % of control | dose: 50.0 mg/kg/injection, schedule: Q04DX003 (ip), vehicle: Klucel (hydroxypropylcellulose) (HPC) 100 % of control | dose: 100.0 mg/kg/injection, schedule: Q04DX003 (ip), vehicle: gum acacia 103 % of control | dose: 200.0 mg/kg/injection, schedule: Q04DX003 (ip), vehicle: gum acacia 105 % of control

COc1ccc(CCOS(=O)(=O)c2ccc(C)cc2)cc1
inactive: [22] 100 % of control | [23] 97 % of control | [24] 100 % of control

CCOC(=O)CNC(=O)C(CSC(c1ccccc1)(c1ccccc1)c1ccccc1)NC(c1ccccc1)(c1ccccc1)c1ccccc1 (stereo unspecified)
inactive: [25] 89 % of control | [18] 103 % of control | [19] 92 % of control | [20] 94 % of control

COC(=O)CCC(NC(=O)c1ccc(NCc2cnc3nc(N)n(C)c(=O)c3n2)cc1)C(=O)OC (stereo unspecified)
inactive: [5] 106 % of control | dose: 200.0 mg/kg/injection, schedule: Q01DX001 (ip), vehicle: saline with Tween-80 104 % of control | dose: 400.0 mg/kg/injection, schedule: Q01DX001 (ip), vehicle: saline with Tween-80 101 % of control

Nc1cc2ccncc2c2sc3ccccc3c12
inactive: [18] 86 % of control | [2] 90 % of control | [19] 91 % of control | [3] 90 % of control | [20] 93 % of control | [4] 90 % of control

Nc1nc(N)c(N=Nc2ccc(S(=O)(=O)Nc3ccccn3)cc2)cc1N=Nc1ccccc1
inactive: [6] 94 % of control | [9] 102 % of control | [12] 103 % of control

CC(C)(C)S/C=C/C(N)=O
inactive: [25] 98 % of control | [15] 91 % of control | [18] 96 % of control | [16] 93 % of control | [19] 94 % of control

Cc1cc(=O)oc2cc(OC(=O)Nc3ccc(F)c(Cl)c3)ccc12
inactive: dose: 3.12 mg/kg/injection, schedule: Q01DX009 (ip), vehicle: Klucel (hydroxypropylcellulose) (HPC) 102 % of control | dose: 6.25 mg/kg/injection, schedule: Q01DX009 (ip), vehicle: Klucel (hydroxypropylcellulose) (HPC) 96 % of control | dose: 12.5 mg/kg/injection, schedule: Q01DX009 (ip), vehicle: Klucel (hydroxypropylcellulose) (HPC) 93 % of control and 92 % of control | [8] 97 % of control | [11] 100 % of control | [14] 101 % of control

O=C(Nc1ccccc1C(F)(F)F)OCCSc1ccc(Cl)cc1
inactive: [22] 95 % of control | [23] 95 % of control | [24] 93 % of control
